Measured values taken from PubChem BioAssay AID330 (DTP/NCI, 2004).
Values joined by “and” are separate entries in the source; they are usually repeats but may differ in a detail not shown here. Equal entries are not always repeated. Toxic doses and inconclusive results are not listed. How the source made its calls: active means survival T/C of 150% or more; inactive means T/C below 125% in these data. Peptide text beside a SMILES is read from it.

Test system: P388 leukemia ip, CD2F1 mice, survival T/C
Assay: NCI In Vivo Anticancer Drug Screen. Data for tumor model P388 Leukemia (intraperitoneal) in CD2F1 (CDF1) mice
Conditions: endpoint: median survival time, higher = longer survival
In short: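 Mice carrying the transplanted tumor received test compound or vehicle. Survival was recorded in each group, and the value is the treated-group measurement divided by that of the vehicle-treated control group.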

[1] = dose: 50.0 mg/kg/injection, schedule: Q01DX005 (ip), vehicle: saline
[2] = dose: 100.0 mg/kg/injection, schedule: Q01DX005 (ip), vehicle: saline
[3] = dose: 200.0 mg/kg/injection, schedule: Q01DX005 (ip), vehicle: saline
[4] = dose: 12.5 mg/kg/injection, schedule: Q01DX009 (ip), vehicle: saline
[5] = dose: 25.0 mg/kg/injection, schedule: Q01DX009 (ip), vehicle: saline
[6] = dose: 50.0 mg/kg/injection, schedule: Q01DX009 (ip), vehicle: saline
[7] = dose: 100.0 mg/kg/injection, schedule: Q04DX003 (ip), vehicle: saline with Tween-80
[8] = dose: 50.0 mg/kg/injection, schedule: Q01DX009 (ip), vehicle: saline with Tween-80
[9] = dose: 100.0 mg/kg/injection, schedule: Q01DX009 (ip), vehicle: saline with Tween-80
[10] = dose: 200.0 mg/kg/injection, schedule: Q01DX009 (ip), vehicle: saline with Tween-80
[11] = dose: 50.0 mg/kg/injection, schedule: Q01DX009 (ip), vehicle: Klucel (hydroxypropylcellulose) (HPC)
[12] = dose: 50.0 mg/kg/injection, schedule: Q01DX005 (ip), vehicle: saline with Tween-80
[13] = dose: 3.12 mg/kg/injection, schedule: Q01DX009 (ip), vehicle: saline with Tween-80
[14] = dose: 6.25 mg/kg/injection, schedule: Q01DX009 (ip), vehicle: saline with Tween-80
[15] = dose: 12.5 mg/kg/injection, schedule: Q01DX009 (ip), vehicle: saline with Tween-80

Measured: T/C

CC(=O)/C(C)=C/O
inactive: [1] 98 % of control | [2] 104 % of control | [3] 104 % of control

N#Cc1sc(=S)n(-c2ccccc2)c1N
inactive: [4] 98 % of control | [5] 107 % of control | [6] 103 % of control and 104 % of control

Clc1nc2nc(C3CC3)[nH]c2nc1Cl
inactive: [7] 100 % of control | dose: 200.0 mg/kg/injection, schedule: Q04DX003 (ip), vehicle: saline with Tween-80 100 % of control | dose: 400.0 mg/kg/injection, schedule: Q04DX003 (ip), vehicle: saline with Tween-80 100 % of control

O=C1NC2CCCC1C(c1ccccc1Cl)NC2c1ccccc1Cl (configuration not stated)
inactive: dose: 100.0 mg/kg/injection, schedule: Q04DX003 (ip), vehicle: suspension in saline 98 % of control | dose: 200.0 mg/kg/injection, schedule: Q04DX003 (ip), vehicle: suspension in saline 100 % of control | dose: 400.0 mg/kg/injection, schedule: Q04DX003 (ip), vehicle: suspension in saline 100 % of control

Cc1ccc(-c2nc3ccccc3c(=O)n2/N=C/c2ccccc2O)cc1
inactive: [8] 101 % of control | [9] 100 % of control | [10] 93 % of control

NC(C(=O)O)c1cc(=O)[nH]o1 (configuration not stated)
inactive: dose: 2.5 mg/kg/injection, schedule: Q01DX009 (ip), vehicle: Klucel (hydroxypropylcellulose) (HPC) 98 % of control | dose: 5.0 mg/kg/injection, schedule: Q01DX009 (ip), vehicle: Klucel (hydroxypropylcellulose) (HPC) 93 % of control | dose: 10.0 mg/kg/injection, schedule: Q01DX009 (ip), vehicle: Klucel (hydroxypropylcellulose) (HPC) 101 % of control

CCOC(=O)C(=CNc1ccc2n[nH]nc2c1)C(=O)OCC
inactive: [11] 100 % of control | dose: 100.0 mg/kg/injection, schedule: Q01DX009 (ip), vehicle: Klucel (hydroxypropylcellulose) (HPC) 108 % of control

c1ccc(N=NC2=NN(c3ccccc3)CS2)cc1
inactive: dose: 25.0 mg/kg/injection, schedule: Q01DX009 (ip), vehicle: saline with Tween-80 105 % of control and 106 % of control | [8] 101 % of control and 102 % of control | [9] 101 % of control and 102 % of control | [10] 101 % of control and 106 % of control

O=C(c1cc2c(cc1Br)OCO2)N1CCc2cc([N+](=O)[O-])ccc21
inactive: dose: 12.5 mg/kg/injection, schedule: Q01DX009 (ip), vehicle: other 118 % of control | dose: 25.0 mg/kg/injection, schedule: Q01DX009 (ip), vehicle: other 110 % of control | dose: 50.0 mg/kg/injection, schedule: Q01DX009 (ip), vehicle: other 105 % of control | dose: 200.0 mg/kg/injection, schedule: Q01DX009 (ip), vehicle: other 104 % of control

CC(O)C(=O)N1Cc2cc3ccccc3nc2C1 (configuration not stated)
inactive: dose: 4.0 mg/kg/injection, schedule: Q01DX009 (ip), vehicle: saline with Tween-80 94 % of control | dose: 8.0 mg/kg/injection, schedule: Q01DX009 (ip), vehicle: saline with Tween-80 89 % of control | dose: 16.0 mg/kg/injection, schedule: Q01DX009 (ip), vehicle: saline with Tween-80 92 % of control | dose: 32.0 mg/kg/injection, schedule: Q01DX009 (ip), vehicle: saline with Tween-80 90 % of control | dose: 64.0 mg/kg/injection, schedule: Q01DX009 (ip), vehicle: saline with Tween-80 91 % of control

CN(C)CC(C(=O)/C=C/c1ccccc1)C(C)(C)C (configuration not stated)
inactive: dose: 60.0 mg/kg/injection, schedule: Q01DX005 (ip), vehicle: saline 105 % of control | dose: 120.0 mg/kg/injection, schedule: Q01DX005 (ip), vehicle: saline 104 % of control

CCCCCCCCCCCCCCCCCCOCC(O)CN(CCO)CCO (configuration not stated)
inactive: dose: 12.5 mg/kg/injection, schedule: Q01DX009 (ip), vehicle: Klucel (hydroxypropylcellulose) (HPC) 91 % of control | dose: 25.0 mg/kg/injection, schedule: Q01DX009 (ip), vehicle: Klucel (hydroxypropylcellulose) (HPC) 91 % of control | [11] 96 % of control

[Co].c1c[nH]cn1.c1c[nH]cn1.c1c[nH]cn1.c1c[nH]cn1.c1c[nH]cn1.c1c[nH]cn1
inactive: dose: 12.5 mg/kg/injection, schedule: Q01DX005 (ip), vehicle: saline with Tween-80 103 % of control | dose: 25.0 mg/kg/injection, schedule: Q01DX005 (ip), vehicle: saline with Tween-80 94 % of control | [12] 103 % of control and 107 % of control

COc1ccc(C(=NO)c2ccc(OC)cc2)cc1
inactive: dose: 100.0 mg/kg/injection, schedule: Q04DX003 (ip), vehicle: saline 100 % of control | dose: 200.0 mg/kg/injection, schedule: Q04DX003 (ip), vehicle: saline 100 % of control | dose: 400.0 mg/kg/injection, schedule: Q04DX003 (ip), vehicle: saline 104 % of control

CCCCCCC1(/C=C/c2ccc(Cl)cc2Cl)OCCCO1
inactive: dose: 50.0 mg/kg/injection, schedule: Q01DX009 (ip), vehicle: saline + alcohol 94 % of control | dose: 100.0 mg/kg/injection, schedule: Q01DX009 (ip), vehicle: saline + alcohol 97 % of control | dose: 200.0 mg/kg/injection, schedule: Q01DX009 (ip), vehicle: saline + alcohol 97 % of control

CCN(CC)CCCC(C)Nc1cc(OC)c2nc(C)ccc2c1OC (configuration not stated)
inactive: dose: 0.78 mg/kg/injection, schedule: Q01DX009 (ip), vehicle: saline 97 % of control | dose: 1.56 mg/kg/injection, schedule: Q01DX009 (ip), vehicle: saline 100 % of control | dose: 3.12 mg/kg/injection, schedule: Q01DX009 (ip), vehicle: saline 99 % of control and 97 % of control

COc1ccc(-c2cc(=O)cc(C(N)=O)o2)cc1
inactive: dose: 60.0 mg/kg/injection, schedule: Q01DX005 (ip), vehicle: saline with Tween-80 101 % of control | dose: 120.0 mg/kg/injection, schedule: Q01DX005 (ip), vehicle: saline with Tween-80 97 % of control | dose: 240.0 mg/kg/injection, schedule: Q01DX005 (ip), vehicle: saline with Tween-80 96 % of control

O=C(O)c1ccnc2nc[nH]c12
inactive: dose: 100.0 mg/kg/injection, schedule: Q04DX002 (ip), vehicle: Klucel (hydroxypropylcellulose) (HPC) 100 % of control | dose: 200.0 mg/kg/injection, schedule: Q04DX002 (ip), vehicle: Klucel (hydroxypropylcellulose) (HPC) 106 % of control | dose: 400.0 mg/kg/injection, schedule: Q04DX002 (ip), vehicle: Klucel (hydroxypropylcellulose) (HPC) 100 % of control

O=C1NC(c2cccc3c2OCO3)N=C2Oc3ccccc3C=C12 (configuration not stated)
inactive: [5] 107 % of control and 87 % of control | [8] 118 % of control | [6] 100 % of control and 107 % of control | [9] 120 % of control | dose: 100.0 mg/kg/injection, schedule: Q01DX009 (ip), vehicle: saline 106 % of control and 117 % of control | dose: 200.0 mg/kg/injection, schedule: Q01DX009 (ip), vehicle: saline 106 % of control and 117 % of control

Cn1c2c(c(=O)n(C)c1=O)CS(=O)c1ccccc1N2 (configuration not stated)
inactive: dose: 25.0 mg/kg/injection, schedule: Q01DX005 (ip), vehicle: suspension in saline 103 % of control | dose: 50.0 mg/kg/injection, schedule: Q01DX005 (ip), vehicle: suspension in saline 96 % of control | dose: 100.0 mg/kg/injection, schedule: Q01DX005 (ip), vehicle: suspension in saline 96 % of control | dose: 200.0 mg/kg/injection, schedule: Q01DX005 (ip), vehicle: suspension in saline 97 % of control

O=C(O)c1ccc[c]([Sb]2(=[O])[O]C(CO)C(C(O)C(O)C(=O)O)[O]2)c1 (configuration not stated)
inactive: [1] 100 % of control | [2] 100 % of control | [3] 104 % of control

CSC(SC)=C1C(=O)NC(=O)NC1=O
inactive: [13] 104 % of control | [14] 90 % of control | dose: 6.25 mg/kg/injection, schedule: Q01DX009 (ip), vehicle: saline 111 % of control | [15] 120 % of control | [4] 111 % of control | [5] 124 % of control | dose: 50.0 mg/kg/injection, schedule: Q01DX005 (ip), vehicle: Klucel (hydroxypropylcellulose) (HPC) 95 % of control | dose: 100.0 mg/kg/injection, schedule: Q01DX005 (ip), vehicle: Klucel (hydroxypropylcellulose) (HPC) 101 % of control

CC(C)CC(NC(=O)C(C)NC(=O)CN)C(=O)O (stereo not drawn) (H-Gly-Ala-Leu-OH; configuration not given here)
inactive: [12] 103 % of control | dose: 100.0 mg/kg/injection, schedule: Q01DX005 (ip), vehicle: saline with Tween-80 107 % of control | dose: 200.0 mg/kg/injection, schedule: Q01DX005 (ip), vehicle: saline with Tween-80 99 % of control

O=[N+]([O-])c1cnc(Sc2ccncn2)c([N+](=O)[O-])c1
inactive: [13] 105 % of control | [14] 98 % of control | [15] 102 % of control | [4] 100 % of control | [5] 89 % of control | [6] 99 % of control

Nc1cccc2ccccc12
inactive: [7] 94 % of control
